Experimental data taken from ChEMBL document CHEMBL3588758, “Structure-Affinity Relationships (SARs) and Structure-Kinetics Relationships (SKRs) of Kv11.1 Blockers” (J Med Chem, 2015).

What was measured:
[1] = biological target: T1, Voltage-gated inwardly rectifying potassium channel KCNH2 (Homo sapiens, UniProt Q12809)
[2] = biological target: T1, Voltage-gated inwardly rectifying potassium channel KCNH2; remark: listed apart in the source
Kv11.1 (KCNH2, hERG) [3] = biological target: T2, Kv11.1 (KCNH2, hERG) (Homo sapiens, UniProt Q12809); assay: in vitro
T2 sequence (Q12809 whole entry): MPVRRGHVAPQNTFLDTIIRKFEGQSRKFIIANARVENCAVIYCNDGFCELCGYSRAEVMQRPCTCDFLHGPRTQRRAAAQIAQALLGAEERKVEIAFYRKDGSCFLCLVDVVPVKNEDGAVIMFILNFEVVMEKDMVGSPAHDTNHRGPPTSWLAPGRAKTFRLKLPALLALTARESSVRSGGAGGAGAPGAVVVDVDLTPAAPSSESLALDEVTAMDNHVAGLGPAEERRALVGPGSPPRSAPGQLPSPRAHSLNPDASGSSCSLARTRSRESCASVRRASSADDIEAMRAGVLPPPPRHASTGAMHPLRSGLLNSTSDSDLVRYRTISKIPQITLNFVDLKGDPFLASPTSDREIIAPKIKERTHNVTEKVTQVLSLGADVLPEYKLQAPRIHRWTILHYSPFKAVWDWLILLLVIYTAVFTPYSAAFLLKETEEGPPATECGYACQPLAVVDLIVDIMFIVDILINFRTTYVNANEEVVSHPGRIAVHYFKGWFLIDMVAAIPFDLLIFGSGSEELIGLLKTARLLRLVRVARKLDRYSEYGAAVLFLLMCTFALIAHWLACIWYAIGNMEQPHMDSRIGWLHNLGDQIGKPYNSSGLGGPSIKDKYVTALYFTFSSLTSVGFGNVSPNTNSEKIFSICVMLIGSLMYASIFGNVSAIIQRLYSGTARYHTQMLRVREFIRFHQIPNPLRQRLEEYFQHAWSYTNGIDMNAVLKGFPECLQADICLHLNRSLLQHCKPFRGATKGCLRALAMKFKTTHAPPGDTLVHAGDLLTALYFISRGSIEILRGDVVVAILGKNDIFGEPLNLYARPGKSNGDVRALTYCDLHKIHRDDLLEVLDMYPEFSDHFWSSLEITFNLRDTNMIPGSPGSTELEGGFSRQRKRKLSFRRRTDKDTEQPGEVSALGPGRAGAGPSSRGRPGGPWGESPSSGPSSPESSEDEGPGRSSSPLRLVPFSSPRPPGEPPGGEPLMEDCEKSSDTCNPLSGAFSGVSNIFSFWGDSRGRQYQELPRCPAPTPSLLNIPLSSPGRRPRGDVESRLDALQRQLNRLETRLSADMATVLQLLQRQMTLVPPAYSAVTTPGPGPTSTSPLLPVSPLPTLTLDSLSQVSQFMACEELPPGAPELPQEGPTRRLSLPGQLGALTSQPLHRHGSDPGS

Kv11.1 (KCNH2, hERG) [4] = biological target: T2, Kv11.1 (KCNH2, hERG); assay: in vitro; remark: listed apart in the source
Kv11.1 (KCNH2, hERG) [5] = biological target: T2, Kv11.1 (KCNH2, hERG); assay: in vitro; remark: listed apart in the source
[6] = biological target: T1, Voltage-gated inwardly rectifying potassium channel KCNH2; remark: listed apart in the source
Description: Inhibition of human Kv11.1 expressed in HEK293 cells assessed as inhibition of channel tail current at holding potential -80 mV by whole cell voltage clamp assay

T1 sequence (Q12809 whole entry): as above

Row | Compound | Ki [1] [nM] | Kd [2] [nM] | koff (Kv11.1 (KCNH2, hERG) [3]; hek293, probe [3H]dofetilide) [s⁻¹] | residence time (Kv11.1 (KCNH2, hERG) [4]; hek293, probe [3H]dofetilide) [min] | kon (Kv11.1 (KCNH2, hERG) [5]; hek293, probe [3H]dofetilide) [M⁻¹ s⁻¹] | koff (Kv11.1 (KCNH2, hERG) [3]; hek293) [s⁻¹] | residence time (Kv11.1 (KCNH2, hERG) [4]; hek293) [min] | kon (Kv11.1 (KCNH2, hERG) [5]; hek293) [M⁻¹ s⁻¹] | IC50 [6] [nM]
1 | C(#Cc1cccc(C#Cc2ccc(-c3ccccc3)cc2)n1)c1ccc(-c2ccccc2)cc1 | > 100000 |  |  |  |  |  |  |  | 
2 | COc1ccc(CCN(C)CCOc2ccccc2)cc1 | 944 | 591 | 0.005 | 3.3 | 9330 |  |  |  | 
3 | CCCCCCCCCc1cccc(CCCCCCCCC)[n+]1C | 3.4 | 4 | 0.00115 | 14 | 300000 |  |  |  | 
4 | O=C(N(CCOc1ccc([N+](=O)[O-])cc1)CCc1ccc([N+](=O)[O-])cc1)C(F)(F)F | 355 | 247 |  |  |  | 0.0102 | 1.6 | 41700 | 
5 | CCN(CCOc1ccc([N+](=O)[O-])cc1)CCc1ccc([N+](=O)[O-])cc1 | 4.2 | 3 | 0.00433 | 3.8 | 2.5e+06 |  |  |  | 
6 | O=C(c1ccc(Cl)cc1)C1CCN(CCc2ccc(Cl)c(Cl)c2)CC1 | 54 | 36 |  |  |  | 0.0065 | 2.6 | 350000 | 
7 | CCCCCCCCCCc1cccc(CCCCCCCCCC)[n+]1C | 17 | 37 |  |  |  | 0.00107 | 16 | 28300 | 
8 | Cc1ccc(-c2ccc(C#Cc3cccc(C#Cc4ccc(-c5ccc(C)cc5)cc4)[n+]3C)cc2)cc1 | 303 | 440 | 0.00055 | 30 | 1430 |  |  |  | 
9 | COc1cccc(-c2ccc(C#Cc3cccc(C#Cc4ccc(-c5cccc(OC)c5)cc4)[n+]3C)cc2)c1 | 176 | 125 |  |  |  | 0.000783 | 21 | 6170 | 
10 | N#CCN(CCOc1ccc([N+](=O)[O-])cc1)CCc1ccc([N+](=O)[O-])cc1 | 203 | 99 |  |  |  | 0.00667 | 2.5 | 76700 | 
11 | CCCCCCC[N+](CC)(CC)CC#Cc1ccc(Cl)cc1 | 1.8 | 1.2 |  |  |  | 0.00217 | 7.7 | 2.83e+06 | 
12 | CCCN(CC)CC#Cc1ccc(C)cc1 | 1200 | 637 | 0.0025 | 6.7 | 5170 |  |  |  | 
13 | CCCCCCc1cccc(CCCCCC)[n+]1C | 12 | 12 |  |  |  | 0.00383 | 4.3 | 333000 | 
14 | CCCCCCCCCCC#Cc1cccc(C#CCCCCCCCCCC)[n+]1C | 1180 | 4260 | 0.002 | 8.3 | 550 |  |  |  | 
15 | C[N+]1(CCc2ccccc2)CCC(C(=O)c2ccc(Cl)cc2)CC1 (configuration not stated) | 48 | 18 |  |  |  | 0.00583 | 2.9 | 800000 | 
16 | C[n+]1c(CCc2ccc(-c3ccccc3)cc2)cccc1CCc1ccc(-c2ccccc2)cc1 | 63 | 60 | 0.00163 | 10 | 26700 |  |  |  | 
17 | C[n+]1c(C#Cc2ccc(-c3cccc(Cl)c3)cc2)cccc1C#Cc1ccc(-c2cccc(Cl)c2)cc1 | 139 | 135 |  |  |  | 0.000183 | 91 | 1380 | 
18 | CN(CCCCOc1ccc([N+](=O)[O-])cc1)CCc1ccc([N+](=O)[O-])cc1 | 1.6 | 0.73 |  |  |  | 0.00433 | 3.8 | 1.07e+07 | 
19 | Cc1ccccc1-c1ccc(C#Cc2cccc(C#Cc3ccc(-c4ccccc4C)cc3)[n+]2C)cc1 | 577 | 203 |  |  |  | 0.00118 | 14 | 5830 | 
20 | C[n+]1c(C#Cc2ccc(-c3ccc(Cl)cc3)cc2)cccc1C#Cc1ccc(-c2ccc(Cl)cc2)cc1 | 71 | 100 |  |  |  | 0.000267 | 63 | 2670 | 
21 | CCCCCCCc1cccc(CCCCCCC)[n+]1C | 0.28 | 0.44 | 0.00167 | 10 | 4.17e+06 |  |  |  | 
22 | CN(CCOc1ccc([N+](=O)[O-])cc1)CCc1ccc([N+](=O)[O-])cc1 | 24 | 20 |  |  |  | 0.0137 | 1.2 | 683000 | 
23 | CCCCCCCCCCCCc1cccc(CCCCCCCCCCCC)[n+]1C | 108 | 153 | 0.000467 | 36 | 3000 |  |  |  | 
24 | C[n+]1c(C#Cc2ccc(-c3ccccc3)cc2)cccc1C#Cc1ccc(-c2ccccc2)cc1 | 86 | 132 |  |  |  | 0.000158 | 105 | 1250 | 107
25 | CCCCCCCCc1cccc(CCCCCCCC)n1 | 36900 | 191000 |  |  |  | 0.000867 | 19 | 4.67 | 
26 | CC(=O)N(CCOc1ccc([N+](=O)[O-])cc1)CCc1ccc([N+](=O)[O-])cc1 | 251 | 132 | 0.03 | 0.56 | 163000 |  |  |  | 
27 | O=C(c1ccccc1)N1CCN(CCc2ccccc2)CC1 | 5420 | 1810 | 0.00767 | 2.2 | 4500 |  |  |  | 
28 | CN(CCOc1ccc(Cl)c(Cl)c1)CCc1ccc(Cl)c(Cl)c1 | 5570 | 5810 | 0.00317 | 5.3 | 1030 |  |  |  | 
29 | C[n+]1c(C#Cc2ccc(-c3ccc(O)cc3)cc2)cccc1C#Cc1ccc(-c2ccc(O)cc2)cc1 | 153 | 103 | 0.000883 | 19 | 8500 |  |  |  | 
30 | O=[N+]([O-])c1ccc(CCNCCOc2ccc([N+](=O)[O-])cc2)cc1 | 47 | 53 |  |  |  | 0.0045 | 3.7 | 90000 | 
